Measured values published in ChEMBL document CHEMBL3868631, “Discovery of SOAT2 inhibitors from synthetic small molecules” (Bioorg Med Chem Lett, 2016).

Test system: not listed separately
Test: Cytotoxicity against CHO cells expressing African green monkey SOAT1 assessed as change in cell shape at 10 ug/ml
Format: toxicity, cell-based, Cricetulus griseus
Details: chinese hamster

SMILES | Activity
C=CC[C@@]1(O)C[C@@H](CCC)O[C@]2(C1)C(=O)Nc1ccccc12 | Non-Toxic
CCC[C@@H]1CC(=O)C[C@@]2(O1)C(=O)N(C)c1cccc(Br)c12 | Non-Toxic
CCC[C@@H]1CC(=O)C[C@@]2(O1)C(=O)Nc1cccc(Br)c12 | Non-Toxic
CCC[C@@H]1C[C@@H](O)C[C@@]2(O1)C(=O)Nc1ccccc12 | Non-Toxic
O=C1C[C@@H](CCCCl)O[C@]2(C1)C(=O)Nc1cccc(Br)c12 | Non-Toxic
CCC[C@@H]1CC(=O)C[C@@]2(O1)C(=O)Nc1cccc(Cl)c12 | Non-Toxic
CCC[C@@H]1CC(=O)C[C@@]2(O1)C(=O)Nc1ccc(C)cc12 | Non-Toxic
O=C1CC(c2ccccc2)O[C@]2(C1)C(=O)Nc1cccc(Br)c12 (mixture of isomers) | Non-Toxic
CCC[C@@H]1C/C(=N/O)C[C@@]2(O1)C(=O)Nc1ccccc12 (racemic) | Non-Toxic
CCC[C@@H]1C[C@@H](NCc2ccccc2)C[C@@]2(O1)C(=O)Nc1ccccc12 (racemic) | Non-Toxic
CCC[C@@H]1CC(=O)C[C@@]2(O1)C(=O)Nc1ccc(Br)cc12 (racemic) | Non-Toxic
CCC[C@@H]1CC(=O)C[C@@]2(O1)C(=O)Nc1ccccc12 (racemic) | Non-Toxic
CCC[C@@H]1CC(=O)C[C@@]2(O1)C(=O)Nc1cc(Cl)ccc12 (racemic) | Non-Toxic
CCC/C=C/C(=O)CC1(O)C(=O)Nc2ccccc21 (racemic) | Toxic
CCC/C=C/C(=O)CC1(O)C(=O)Nc2cccc(Br)c21 (racemic) | Toxic

Molecular target: T1, Sterol O-acyltransferase 2 (Chlorocebus aethiops) (UniProt O77759)
T1 sequence (whole entry): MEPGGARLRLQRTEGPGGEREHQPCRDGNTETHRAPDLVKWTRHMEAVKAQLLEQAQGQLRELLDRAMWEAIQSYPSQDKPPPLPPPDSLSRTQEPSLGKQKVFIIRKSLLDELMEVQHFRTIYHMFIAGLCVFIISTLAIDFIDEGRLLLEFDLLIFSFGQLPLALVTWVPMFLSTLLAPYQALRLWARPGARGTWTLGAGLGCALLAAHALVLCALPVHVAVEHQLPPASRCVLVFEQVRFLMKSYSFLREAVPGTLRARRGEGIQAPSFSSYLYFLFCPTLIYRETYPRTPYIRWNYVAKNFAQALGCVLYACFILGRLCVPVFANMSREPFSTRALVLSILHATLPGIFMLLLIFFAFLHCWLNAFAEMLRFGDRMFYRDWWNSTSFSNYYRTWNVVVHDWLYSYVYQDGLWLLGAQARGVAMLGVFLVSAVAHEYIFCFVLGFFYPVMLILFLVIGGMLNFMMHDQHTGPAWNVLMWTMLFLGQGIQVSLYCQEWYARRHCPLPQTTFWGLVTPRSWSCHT
Test: Inhibition of African green monkey SOAT2 expressed in CHO cells assessed as reduction in [14C]cholesteryl ester formation from [1-14C]oleic acid at 10 ug/ml measured after 6 hrs relative to control
Format: cell-based
Details: not given

SMILES | inhibition [%]
CCC[C@@H]1CC(=O)C[C@@]2(O1)C(=O)N(C)c1cccc(Br)c12 | > 50
CCC[C@H]1C/C(=N/OCc2ccccc2)C[C@]2(O1)C(=O)Nc1ccccc12 | > 50
CCC[C@@H]1C/C(=N/OCc2ccccc2)C[C@@]2(O1)C(=O)Nc1ccccc12 | > 50
O=C1CC(c2ccccc2)O[C@]2(C1)C(=O)Nc1cccc(Br)c12 (mixture of isomers) | > 50
CCC[C@@H]1C/C(=N/O)C[C@@]2(O1)C(=O)Nc1ccccc12 (racemic) | > 50
CCC[C@@H]1C[C@@H](NCc2ccccc2)C[C@@]2(O1)C(=O)Nc1ccccc12 (racemic) | > 50
CCC[C@@H]1CC(=NOCc2ccccc2)C[C@@]2(O1)C(=O)Nc1ccccc12 (racemic) | > 50
CCC[C@@H]1C[C@@H](NCc2ccccc2)C[C@@]2(O1)C(=O)N(C)c1cccc(Br)c12 (racemic) | > 50
CCC[C@@H]1C[C@@H](NCc2ccccc2)C[C@@]2(O1)C(=O)N(C)c1ccccc12 (racemic) | > 50
CCC[C@@H]1C[C@@H](NCc2ccccc2)C[C@@]2(O1)C(=O)Nc1cccc(Br)c12 (racemic) | > 50
CCC/C=C/C(=O)CC1(O)C(=O)Nc2cccc(Br)c21 (racemic) | > 50
CCC[C@@H]1C[C@@H](NCc2ccccc2)C[C@@]2(O1)C(=O)N(Cc1ccccc1)c1ccccc12 (racemic) | > 50
CCC[C@@H]1C[C@@H](N2CCCC2)C[C@@]2(O1)C(=O)Nc1ccccc12 (racemic) | > 50

Molecular target: T2, Sterol O-acyltransferase 1 (Chlorocebus aethiops, UniProt O77760)
T2 sequence (O77760 whole entry): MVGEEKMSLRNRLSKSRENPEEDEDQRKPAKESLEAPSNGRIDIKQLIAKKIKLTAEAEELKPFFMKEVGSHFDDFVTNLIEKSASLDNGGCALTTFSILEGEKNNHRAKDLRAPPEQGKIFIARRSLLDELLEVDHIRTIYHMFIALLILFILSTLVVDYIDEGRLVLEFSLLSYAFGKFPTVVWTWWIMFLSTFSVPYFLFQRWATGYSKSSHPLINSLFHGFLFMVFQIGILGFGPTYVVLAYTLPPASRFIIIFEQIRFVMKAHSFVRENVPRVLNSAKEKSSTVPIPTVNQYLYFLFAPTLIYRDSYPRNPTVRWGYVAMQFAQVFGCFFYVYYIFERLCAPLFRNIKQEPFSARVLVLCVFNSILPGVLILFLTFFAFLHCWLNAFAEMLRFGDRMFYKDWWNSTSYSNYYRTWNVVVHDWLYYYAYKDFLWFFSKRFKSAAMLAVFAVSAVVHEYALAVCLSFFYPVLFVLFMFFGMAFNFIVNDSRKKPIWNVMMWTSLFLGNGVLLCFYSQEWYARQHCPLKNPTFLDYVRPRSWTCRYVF
Test: Inhibition of African green monkey SOAT1 expressed in CHO cells assessed as reduction in [14C]cholesteryl ester formation from [1-14C]oleic acid measured after 6 hrs
Format: ADME, cell-based
Details: not given

SMILES | IC50 [µM]
CCC[C@@H]1CC(=O)C[C@@]2(O1)C(=O)N(C)c1cccc(Br)c12 | > 28
CCC[C@H]1C/C(=N/OCc2ccccc2)C[C@]2(O1)C(=O)Nc1ccccc12 | 14
CCC[C@@H]1C/C(=N/OCc2ccccc2)C[C@@]2(O1)C(=O)Nc1ccccc12 | 16
CCC[C@@H]1C[C@@H](NCc2ccccc2)C[C@@]2(O1)C(=O)Nc1ccccc12 (racemic) | > 28
CCC[C@@H]1CC(=NOCc2ccccc2)C[C@@]2(O1)C(=O)Nc1ccccc12 (racemic) | 8.9
CCC[C@@H]1C[C@@H](NCc2ccccc2)C[C@@]2(O1)C(=O)N(C)c1cccc(Br)c12 (racemic) | > 22
CCC[C@@H]1C[C@@H](NCc2ccccc2)C[C@@]2(O1)C(=O)N(C)c1ccccc12 (racemic) | > 27
CCC[C@@H]1C[C@@H](NCc2ccccc2)C[C@@]2(O1)C(=O)Nc1cccc(Br)c12 (racemic) | > 23
CCC[C@@H]1C[C@@H](NCc2ccccc2)C[C@@]2(O1)C(=O)N(Cc1ccccc1)c1ccccc12 (racemic) | 11
CCC[C@@H]1C[C@@H](N2CCCC2)C[C@@]2(O1)C(=O)Nc1ccccc12 (racemic) | > 31

Test system: not listed separately
Test: Cytotoxicity against CHO cells expressing African green monkey SOAT2 assessed as change in cell shape at 10 ug/ml
Format: toxicity, cell-based, Cricetulus griseus
Details: chinese hamster

SMILES | Activity
C=CC[C@@]1(O)C[C@@H](CCC)O[C@]2(C1)C(=O)Nc1ccccc12 | Non-Toxic
CCC[C@@H]1CC(=O)C[C@@]2(O1)C(=O)N(C)c1cccc(Br)c12 | Non-Toxic
CCC[C@@H]1CC(=O)C[C@@]2(O1)C(=O)Nc1cccc(Br)c12 | Non-Toxic
CCC[C@@H]1C[C@@H](O)C[C@@]2(O1)C(=O)Nc1ccccc12 | Non-Toxic
O=C1C[C@@H](CCCCl)O[C@]2(C1)C(=O)Nc1cccc(Br)c12 | Non-Toxic
CCC[C@@H]1CC(=O)C[C@@]2(O1)C(=O)Nc1ccccc12 | Non-Toxic
CCC[C@@H]1CC(=O)C[C@@]2(O1)C(=O)Nc1cccc(Cl)c12 | Non-Toxic
CCC[C@@H]1CC(=O)C[C@@]2(O1)C(=O)Nc1ccc(C)cc12 | Non-Toxic
O=C1CC(c2ccccc2)O[C@]2(C1)C(=O)Nc1cccc(Br)c12 (mixture of isomers) | Non-Toxic
CCC[C@@H]1C/C(=N/O)C[C@@]2(O1)C(=O)Nc1ccccc12 (racemic) | Non-Toxic
CCC[C@@H]1C[C@@H](NCc2ccccc2)C[C@@]2(O1)C(=O)Nc1ccccc12 (racemic) | Non-Toxic
CCC[C@@H]1CC(=O)C[C@@]2(O1)C(=O)Nc1ccc(Br)cc12 (racemic) | Non-Toxic
CCC[C@@H]1CC(=O)C[C@@]2(O1)C(=O)Nc1cc(Cl)ccc12 (racemic) | Non-Toxic
CCC/C=C/C(=O)CC1(O)C(=O)Nc2ccccc21 (racemic) | Toxic
CCC/C=C/C(=O)CC1(O)C(=O)Nc2cccc(Br)c21 (racemic) | Toxic

Molecular target: T3, Sterol O-acyltransferase 2 (Chlorocebus aethiops, UniProt O77759)
T3 sequence (O77759 whole entry): T1 sequence (whole entry)
Test: Inhibition of African green monkey SOAT2 expressed in CHO cells assessed as reduction in [14C]cholesteryl ester formation from [1-14C]oleic acid measured after 6 hrs
Format: cell-based
Details: not given

SMILES | IC50 [µM]
CCC[C@@H]1CC(=O)C[C@@]2(O1)C(=O)N(C)c1cccc(Br)c12 | 9.3
CCC[C@H]1C/C(=N/OCc2ccccc2)C[C@]2(O1)C(=O)Nc1ccccc12 | 16
CCC[C@@H]1C/C(=N/OCc2ccccc2)C[C@@]2(O1)C(=O)Nc1ccccc12 | 1.5
CCC[C@@H]1C[C@@H](NCc2ccccc2)C[C@@]2(O1)C(=O)Nc1ccccc12 (racemic) | 6.8
CCC[C@@H]1CC(=NOCc2ccccc2)C[C@@]2(O1)C(=O)Nc1ccccc12 (racemic) | 3
CCC[C@@H]1C[C@@H](NCc2ccccc2)C[C@@]2(O1)C(=O)N(C)c1cccc(Br)c12 (racemic) | > 33
CCC[C@@H]1C[C@@H](NCc2ccccc2)C[C@@]2(O1)C(=O)N(C)c1ccccc12 (racemic) | > 27
CCC[C@@H]1C[C@@H](NCc2ccccc2)C[C@@]2(O1)C(=O)Nc1cccc(Br)c12 (racemic) | 12
CCC[C@@H]1C[C@@H](NCc2ccccc2)C[C@@]2(O1)C(=O)N(Cc1ccccc1)c1ccccc12 (racemic) | 9.1
CCC[C@@H]1C[C@@H](N2CCCC2)C[C@@]2(O1)C(=O)Nc1ccccc12 (racemic) | 26

Molecular target: T4, SOAT1 (sterol O-acyltransferase 1) (Chlorocebus aethiops, UniProt O77760)
T4 sequence (O77760 whole entry): T2 sequence (O77760 whole entry)
Test: Inhibition of African green monkey SOAT1 expressed in CHO cells assessed as reduction in [14C]cholesteryl ester formation from [1-14C]oleic acid at 10 ug/ml measured after 6 hrs relative to control
Format: ADME, cell-based
Details: CHO cells expressing African green monkey SOAT1, probe [1-14C]oleic acid

SMILES | inhibition at 6 h, 10 ug/ml [%]
CCC[C@@H]1CC(=O)C[C@@]2(O1)C(=O)N(C)c1cccc(Br)c12 | > 50
CCC[C@H]1C/C(=N/OCc2ccccc2)C[C@]2(O1)C(=O)Nc1ccccc12 | > 50
CCC[C@@H]1C/C(=N/OCc2ccccc2)C[C@@]2(O1)C(=O)Nc1ccccc12 | > 50
O=C1CC(c2ccccc2)O[C@]2(C1)C(=O)Nc1cccc(Br)c12 (mixture of isomers) | > 50
CCC[C@@H]1C/C(=N/O)C[C@@]2(O1)C(=O)Nc1ccccc12 (racemic) | > 50
CCC[C@@H]1C[C@@H](NCc2ccccc2)C[C@@]2(O1)C(=O)Nc1ccccc12 (racemic) | > 50
CCC[C@@H]1CC(=NOCc2ccccc2)C[C@@]2(O1)C(=O)Nc1ccccc12 (racemic) | > 50
CCC[C@@H]1C[C@@H](NCc2ccccc2)C[C@@]2(O1)C(=O)N(C)c1cccc(Br)c12 (racemic) | > 50
CCC[C@@H]1C[C@@H](NCc2ccccc2)C[C@@]2(O1)C(=O)N(C)c1ccccc12 (racemic) | > 50
CCC[C@@H]1C[C@@H](NCc2ccccc2)C[C@@]2(O1)C(=O)Nc1cccc(Br)c12 (racemic) | > 50
CCC/C=C/C(=O)CC1(O)C(=O)Nc2cccc(Br)c21 (racemic) | > 50
CCC[C@@H]1C[C@@H](NCc2ccccc2)C[C@@]2(O1)C(=O)N(Cc1ccccc1)c1ccccc12 (racemic) | > 50
CCC[C@@H]1C[C@@H](N2CCCC2)C[C@@]2(O1)C(=O)Nc1ccccc12 (racemic) | > 50

Test system: not listed separately
Test: Selectivity index, ratio of IC50 for African green monkey SOAT1 expressed in CHO cells to IC50 for African green monkey SOAT2 expressed in CHO cells
Design: species or system Chlorocebus aethiops
Details: not given

SMILES | Ratio IC50
CCC[C@@H]1CC(=O)C[C@@]2(O1)C(=O)N(C)c1cccc(Br)c12 | >3
CCC[C@H]1C/C(=N/OCc2ccccc2)C[C@]2(O1)C(=O)Nc1ccccc12 | 0.88
CCC[C@@H]1C/C(=N/OCc2ccccc2)C[C@@]2(O1)C(=O)Nc1ccccc12 | 10 - 11
CCC[C@@H]1C[C@@H](NCc2ccccc2)C[C@@]2(O1)C(=O)Nc1ccccc12 (racemic) | >4.1
CCC[C@@H]1CC(=NOCc2ccccc2)C[C@@]2(O1)C(=O)Nc1ccccc12 (racemic) | 3
CCC[C@@H]1C[C@@H](NCc2ccccc2)C[C@@]2(O1)C(=O)Nc1cccc(Br)c12 (racemic) | >1.9
CCC[C@@H]1C[C@@H](NCc2ccccc2)C[C@@]2(O1)C(=O)N(Cc1ccccc1)c1ccccc12 (racemic) | 1.2
CCC[C@@H]1C[C@@H](N2CCCC2)C[C@@]2(O1)C(=O)Nc1ccccc12 (racemic) | >1.2
